Measurements from patent US11696537B2, “Composition and method for increasing the content of glucosinolates in adult plants of the genus brassica” (CONSEJO SUPERIOR DE INVESTIGACIONES CIENTÍFICAS (CSIC), priority 2018, dated 2023).

How the values were obtained:
[1] = Drop dispersion; type: physicochemical; conditions: under binoculars (1.6×), FIG. 3
Procedure: The drop dispersion of Compositions 1 and 2 and that of elicitor Composition (MeJA) was determined under binoculars (1.6×) (FIG. 3).

[2] = system: Brassica oleracea var. Italica Parthenon; experiment: Greenhouse test: concentration of glucosinolates on leaves and inflorescences after foliar application; type: in vivo
Procedure: (§1) In a growth chamber, seeds of the broccoli cultivar (Brassica oleracea var. Italica) Parthenon which grew for 30 days were germinated. Subsequently, they were allowed to grow in a greenhouse for 75 days until the inflorescences reached commercial size. In this case, foliar application of the treatments indicated below was carried out by spraying between 100 and 150 ml per plant: one at the time the flower bud appears and the following applications 5 and 10 days, respectively, after the first application.
Control composition: consisting of a solution containing 0.2% by volume of ethanol and 99.8% by volume of water.
Surfactant composition 1 (Triton X-100): consisting of a solution containing 0.1% by volume of Triton X-100 surfactant and 99.9% by volume of water.
Surfactant composition 2 (MPP): consisting of a solution containing 0.1% by volume of the modified polysiloxane polyether surfactant and 99.9% by volume of water.
Elicitor composition (MeJA): consisting of a solution containing 0.0022% by volume of MeJA, 0.2% by volume of ethanol and 99.7978% by volume of water.
Composition 2 (MeJA+Triton X-100): consisting of a solution containing 0.0022% by volume of MeJA, 0.2% by volume of ethanol, 0.1% by volume of Triton X-100 and 99.70% by volume of water.
Composition 1 (MeJA+MPP): A solution was prepared containing 0.0022% by volume of MeJA (for a final concentration of 100 micromolar in the composition), 0.2% by volume of ethanol, 0.1% by volume of polysiloxane polyether and 99.7968% by volume of water.
Subsequently, the plants were harvested and the leaves and inflorescences were frozen in liquid nitrogen and immediately lyophilised to prevent the compounds of interest from degrading until it was time to determine the glucosinolates and metabolites of interest.
The analyses were carried out on the leaf and inflorescence at the time of collecting the commercial size. The method used for extracting glucosinolates was based on the method developed by the research group and currently in the public domain: Dominguez-Perles et al. (2010) Journal of Food Science 75, 383-392. The quantitative analysis was carried out by HPLC-DAD. The lyophilised and ground samples (100 mg) were extracted with 1 ml of 70% MeOH in a hot bath at 70° C. for 30 minutes, stirring every 5 minutes in a vortex, to optimise the extraction. The reaction was then stopped in an ice bath and the samples were centrifuged to precipitate the insoluble material, for 15 minutes, at 10,000 g and at 4° C. The supernatant was collected and the methanol was removed on a rotary evaporator with a thermostatically controlled bath at 38° C. The dry residue obtained was redissolved in ultra-pure water and filtered (00.22 μm of PVDF) for the subsequent analysis thereof.
Each sample (20 μl) was analysed in high-performance liquid chromatography (HPLC) equipped with a pump for binary eluent partitioning, an inline degasser, a photodiode detector autosampler (DAD). The compounds were separated in a C18 column measuring 250×4 mm and with a 0.4 um pore diameter, in reversed phase liquid chromatography (RP-HPLC) mode. The glucosinolates were identified using the methodology already described by the research group and publicly available for multipurpose analysis of intact glucosinolates (Martinez-Sánchez et al. 2006 Postharvest Biol. Technol. 42, 86-97; Dominguez-Perles et al. (2010) Journal of Food Sci. 75, 383-392), based on the retention times of the respective analytical peaks, the maximum absorption spectra thereof in the UV-Vis range and the comparison with commercially available external standards, sinigrin for aliphatic glucosinolates and glucobrassicin for indolic glucosinolates (Baenas et al. (2012) J. Agric. Food Chemistry, 60, 11409-11420). The detection was carried out at 227 nm and the concentration of glucosinolates was expressed in μmol/g of plant tissue dry weight. […]

[3] = system: Brassica oleracea var. Italica Parthenon; conditions: in vivo
Procedure: as §1

drop dispersion [1] | % of Commercial heads [3] [%] | Compound | Total GLS ([2]; INFLORESCENCE) [mg/g DW] | mg GBS/g DW ([2]; INFLORESCENCE) [mg/g DW] | mg GRA/g DW ([2]; INFLORESCENCE) [mg/g DW] | mg NGB/g DW ([2]; INFLORESCENCE) [mg/g DW] | Total GLS ([2]; LEAF) [mg/g DW] | mg GBS/g DW ([2]; LEAF) [mg/g DW] | mg GRA/g DW ([2]; LEAF) [mg/g DW] | mg NGB/g DW ([2]; LEAF) [mg/g DW]
no dispersion is observed | 100 | CC/C=C\CC1C(=O)CCC1CC(=O)OC (centres unmarked) [MeJA, methyl jasmonate] | 4.97 | 2.05 | 1.70 | 1.22 | 1.75 | 0.71 | 0.35 | 0.69
 | 81.1 | Triton X-100 |  |  |  |  |  |  |  | 
